{
  "source": "patent US20240173255A1",
  "about": "“Polymeric Micelle Coated with Chain-Like Poorly Soluble Drug, Preparation Method and Application” (Hangzhou Hanjing Biotechnology Co., Ltd, priority 2021, published 2024)",
  "key": {"[1]": {"tested_on": "mouse lung cancer A549 cells", "assay": "Cancer cell inhibition test (EZMTT), A549", "type": "cell-based", "details": "5 days culture", "procedure": "(§1) Taking the polymeric micelle prepared according to Example 2 as an example: the polymeric micelle was added to a 96-well plate, and 1,000 each of […] lung cancer A549 cells and mouse liver cancer H22 cells were added to each well."}, "[2]": {"tested_on": "H22 mouse liver cancer subcutaneous tumor transplants", "assay": "Treatment test on subcutaneous tumor transplants in mice", "type": "in vivo", "details": "ICR mice, 20 mg/kg tail vein once a day for 10 days, tumors removed on 11th day", "procedure": "30 ICR mice weighing about 20 g were randomly divided into 3 groups, with 10 mice in each group. Liver cancer H22 cells were inoculated subcutaneously into the right armpit of mice. The next day, mice in Group 1 were injected with CPD14 injection without Soluplus prepared according to Example 2 at 20 mg/kg through the tail vein; mice in Group 2 waere injected with the polymeric micelle prepared according to Example 2 at 20 mg/kg through the tail vein; and mice in Group 3 were injected with the Soluplus blank micelle without drug at 20 mg/kg through the tail vein. The mice were injected once a day for 10 consecutive days, and the body weight of the mice was recorded and the status of the mice was observed every day. On the 11th day, the tumors of the mice were removed and measured."}, "[3]": {"tested_on": "mouse liver cancer H22 cells", "assay": "Cancer cell inhibition test (EZMTT), H22", "type": "cell-based", "details": "5 days culture", "procedure": "as §1"}, "[4]": {"assay": "Bioavailability test (pharmacokinetics) in ICR mice", "type": "in vivo, mouse", "details": "10 mg/kg tail vein injection", "procedure": "36 Institute of Cancer Research (ICR) mice weighing about 20 g were randomly divided into 2 groups, with 18 mice in each group. The mice all were separately administered using a CPD14 injection without Soluplus entrapment prepared according to Example 2 and the polymeric micelle prepared according to Example 2 in the same concentration, at a dose of 10 mg/kg by tail vein injection. Blood was collected at 0.003 h, 0.17 h, 0.5 h, 1 h, 2 h, 4 h, 8 h, 12 h, and 24 h after administration, and a plasma concentration of CPD14 was measured after treating the whole blood or plasma."}, "[5]": {"assay": "Solubility of series A to E drugs in water and 10% Soluplus solution", "type": "physicochemical", "excerpt": "The solubilities of the poorly soluble chain-like drugs of the series A to E according to the present disclosure in water and a 10% Soluplus solution are shown in Table 2."}, "[6]": {"assay": "Stability test in blood", "type": "in vitro ADME", "details": "37° C., 2 h, FIG. 4", "procedure": "Taking the polymeric micelle prepared according to Example 2 as an example: in a 96-well plate, 10 μL of the polymeric micelle was added, then 190 μL of blood was added and shaken quickly to be uniform. At 37° C., a resulting mixture was taken out at preset time points of 5 min, 30 min, 60 min, and 120 min separately, and centrifuged at 3,000 rpm for 10 min to separate a plasma layer (upper layer) and a red blood cell layer (lower layer), each 100 μL. The plasma and red blood cell samples were treated using an organic solvent extraction method, and a concentration of CPD14 molecules in the samples was quantified and analyzed using HPLC (gradient method), while CPD14 molecules not entrapped by Soluplus were used as a control."}},
  "data": [
    {"smiles": "COc1ccc2[se]n(CCCCCCn3[se]c4ccc(O)cc4c3=O)c(=O)c2c1", "note": "[CPD14]", "values": [
      {"measurement": "IC50", "setting": "[1]", "result": "0.49 ± 0.07", "unit": "µM"},
      {"measurement": "Tumor weight of H22 tumor transplant", "setting": "[2]", "result": "2.15 ± 0.05", "unit": "g"},
      {"measurement": "IC50", "setting": "[3]", "result": "0.51 ± 0.04", "unit": "µM"},
      {"measurement": "AUC0 h→24 h", "setting": "[4]", "result": "9600 ± 1100", "unit": "ng·h/mL"},
      {"measurement": "CL", "setting": "[4]", "result": "17 ± 2", "unit": "mL/min/kg"},
      {"measurement": "Cmax", "setting": "[4]", "result": "6600 ± 700", "unit": "ng/mL"},
      {"measurement": "T1/2β", "setting": "[4]", "result": "102 ± 0.6", "unit": "min"},
      {"measurement": "Tmax", "setting": "[4]", "result": 1.98, "unit": "min"},
      {"measurement": "Solubility in 10% Soluplus", "setting": "[5]; 10% Soluplus solution", "result": ">1000", "unit": "µg/mL"},
      {"measurement": "Solubility in water", "setting": "[5]; water", "result": 10, "unit": "µg/mL"},
      {"measurement": "stability rate in blood", "setting": "[6]", "result": "significantly lower than that of the polymeric micelle"}
    ]}
  ]
}
